Consider two compounds from patent publication US8304443B2, “Indazole derivatives” (Asahi Kasei Pharma Corporation, priority 2008, dated 2012).

pEC50: −log10 of the molar value.

In test [1] the target is T1, human α1A adrenergic receptor (Homo sapiens, UniProt P35348).
T1 construct: expressed in transfected cells; host or cells: HEK293 cells, pcDNA3.1(−), geneticin-selected
T1 sequence (P35348 1-466): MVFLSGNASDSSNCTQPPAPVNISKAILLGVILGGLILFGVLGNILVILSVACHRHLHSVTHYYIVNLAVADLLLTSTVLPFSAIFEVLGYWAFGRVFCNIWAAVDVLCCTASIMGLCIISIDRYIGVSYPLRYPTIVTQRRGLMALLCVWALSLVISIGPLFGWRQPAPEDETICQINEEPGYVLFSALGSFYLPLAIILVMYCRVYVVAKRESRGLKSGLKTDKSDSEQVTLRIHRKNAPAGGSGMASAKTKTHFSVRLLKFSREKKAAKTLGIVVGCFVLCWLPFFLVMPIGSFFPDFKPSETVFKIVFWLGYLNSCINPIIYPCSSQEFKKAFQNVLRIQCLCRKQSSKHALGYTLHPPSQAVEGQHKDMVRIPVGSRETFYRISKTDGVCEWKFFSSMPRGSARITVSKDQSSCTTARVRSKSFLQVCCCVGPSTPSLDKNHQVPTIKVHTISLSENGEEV
Briefly: Test example 4: human α1A adrenergic receptor agonist activity (Ca flux, Fura-2). The class given is cell-based. The settings on record: for Emax: Table 4, Test example 4, maximum response to norephinephrine taken as 100%, read-out: α1A receptor I.A. Here is the method:
Human α1A adrenergic receptor agonist activity is determined by using HEK293 cells transfected with pcDNA3.1(−) (Invitrogen) to which human α1A gene has been inserted. These cells are cultured in a DMEM medium containing 10% fetal bovine serum, 400 μg/mL geneticin (Gibco BRL), 100 U/ml penicillin and 100 μg/ml streptomycin. […] After carrying out the loading for 30 minutes in a CO2 incubator, excess Fura-2AM is removed by washing the cells twice with the assay buffer. The cells obtained after the centrifuge is prepared to 5×10^6 cells/ml by using the assay buffer, and aliquoted into a 96-well UV plate (manufactured by Corning Inc.) to give a cell plate (80 μl/well). […] After the measurement for about 30 seconds, 20 μl of the test sample from the sample plate is added to the cell plate and the measurement is continued for another 270 seconds. Ca flux caused by the test compound is obtained from the peak height difference between the maximum value of fluorescence intensity ratio at 340 nm and 380 nm after the addition of the test compound and the fluorescence intensity ratio before the addition of the test compound. Maximum response to norephinephrine as a positive control is taken as 100%, and the maximum response ratio of each test compound is obtained as Intrinsic Activity [I.A. (%)].

The target of test [2] is T2, human β3 adrenergic receptor (Homo sapiens, UniProt P13945).
T2 construct: used as a probe to obtain the full length human β3 gene from a human genomic library (Clonetech); expressed in transfected cells; host or cells: CHO (Chinese hamster ovary) cells, pcDNA3, geneticin-selected
T2 sequence (P13945 whole entry): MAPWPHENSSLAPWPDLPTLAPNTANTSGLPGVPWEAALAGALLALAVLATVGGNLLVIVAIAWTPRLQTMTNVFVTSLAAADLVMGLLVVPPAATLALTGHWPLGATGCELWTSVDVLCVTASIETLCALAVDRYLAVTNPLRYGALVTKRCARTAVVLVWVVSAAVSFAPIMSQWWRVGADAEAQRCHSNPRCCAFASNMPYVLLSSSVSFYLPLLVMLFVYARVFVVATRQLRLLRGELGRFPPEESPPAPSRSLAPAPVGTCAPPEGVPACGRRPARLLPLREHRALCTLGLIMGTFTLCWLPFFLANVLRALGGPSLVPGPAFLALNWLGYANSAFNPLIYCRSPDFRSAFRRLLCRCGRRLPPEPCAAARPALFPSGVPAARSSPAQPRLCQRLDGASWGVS
The test is described as follows: Test example 1-B: human β3 adrenergic receptor agonist activity (cAMP-Screen, 96-well). To be noted: for Emax: 0.5 h, read-out: β3 receptor I.A.; for pEC50: Table 4, Test example 1-B, CHO cells with human β3 gene, cAMP. The class given is cell-based. Here is the method:
Human β3 adrenergic receptor agonist activity is determined using CHO (Chinese hamster ovary) cells transfected with pcDNA3 (Invitrogen) to which human β3 gene has been inserted. […] This human β3 cDNA fragment is used as a probe to obtain the full length human β3 gene from a human genomic library (Clonetech). The above cells are cultured in a Ham's F-12 medium containing 10% fetal bovine serum and 400 μg/mL geneticin (Invitrogen). After seeding these cells into a 96-well plate (2×10^4 cells/well) and culturing them for about 20 hours, they are allowed to stand in a serum-free Ham's F-12 medium (80 μL) for 15 minutes. The test compound is first dissolved in DMSO, serially diluted with Ham's F-12 comprising 100 mmol/L HEPES and 1 mmol/L isobutylmethylxanthine, and then 20 μL of the solution is added to the cells. After the cells are cultured for 30 minutes, the medium is removed, followed by addition of assay/lysis buffer (0.1 ml) included in cAMP-Screen Kit (manufactured by Applied Biosystems). The cells are incubated for 30 minutes at 37° C. The resulting cell lysate is determined to cAMP quantitation by using cAMP-Screen kit described above.

One may read the pEC50 as the EC50 on a negative log10 scale, so that one unit is a factor of ten. Take `CS(=O)(=O)Nc1cccc([C@@H](O)CNCCOc2ccc3c(C4CC4)n[nH]c3c2)c1` [Example 1, (R)—N-(3-(1-Hydroxy-2-(2-(3-cyclopropylindazol-6-yloxy)ethylamino)ethyl)phenyl)methanesulfonamide]: the pEC50 in test [1] is 5.78; in test [2], 7.82. The values for the Emax in test [1] and in test [2] were 20% and 77%, respectively.
In the case of `CS(=O)(=O)Nc1cccc([C@@H](O)CNCCOc2ccc3c(C4CCC4)n[nH]c3c2)c1` [Example 2, (R)—N-(3-(1-Hydroxy-2-(2-(3-cyclobutylindazol-6-yloxy)ethylamino)ethyl)phenyl)methanesulfonamide], the Emax in test [1] is 10%. For the same compound, in test [2], the Emax was 68% and the pEC50 was 7.25.
